The text below walks through data of publication PMC10303687 (Protein Science : A Publication of the Protein Society, 2023).

“Also recorded” adds a separate entry of the source. Ends that are not written are not given here.

In experiment [1] the target is T1, MDM2 D. rerio (SWIB domain) (Danio rerio, UniProt O42354).
T1 construct: N-terminal fusion: NusA-TEV-His6-PreScission (pSY10) or His6-GST-PreScission (pETM33); made in house; host or cells: Escherichia coli BL21 (DE3) pLys or BL21 (DE3)
Briefly: Stopped-flow binding kinetics (kon, koff; KD = koff/kon). The conditions noted are these: for kon: MDM2 D. rerio 0.5–2 μM mixed with 1–10 μM peptide, curve fitting error; for kon / koff: pH 7.4; for koff: complex 1 μM:1 μM displaced by 10–20 μM dansylated human p53TAD, SD of two or three replicates.

Experiment [2] has as its target T2, MDM2 H. sapiens (SWIB domain) (Homo sapiens, UniProt Q00987).
T2 construct: The reconstructed MDM2 variants used in the present study correspond to residues 17–125 of human MDM2; N-terminal fusion: NusA-TEV-His6-PreScission (pSY10) or His6-GST-PreScission (pETM33); made in house; host or cells: Escherichia coli BL21 (DE3) pLys or BL21 (DE3)
Described as above. The conditions noted are these: 10°C; for koff: pre-formed complex 1 μM:1 μM displaced by 10–20 μM dansylated human p53TAD, pH 7.4, SD of two or three replicates; for kon: pH 7.4, MDM2 H. sapiens 0.5–2 μM mixed with 1–10 μM p53TAD, kobs vs concentration, pH 7.4, curve fitting error.

The target of experiment [3] is MDM2 T. adhaerens (SWIB domain). Briefly: Fluorescence polarization displacement of FITC-labeled human p53TAD 15–26 (IC50 to KD/Ki). The format is binding, Trichoplax adhaerens. The conditions noted are these: FP displacement, FITC-labeled p53TAD H. sapiens 15–26 6 or 10 nM and MDM2 T. adhaerens 50 μM constant, dilution series of native p53TAD, room temperature, pH 7.4. The protocol: FP can detect weak affinities (K D values in the high μM range), although the accuracy is lower than for the other methods. In FP experiments we observed direct binding using a FITC‐labeled p53TAD peptide and used unlabeled peptides containing the binding motif to displace the labeled one. FP experiments were performed at room temperature using the same buffer as kinetic experiments. For saturation experiments the FITC labeled human peptide was held at a constant concentration of 6 or 10 nM and mixed with the 1:1 dilution series of different MDM2 proteins (the highest concentration of proteins were 89, 37, 50, 22, and 7.3 μM for T. adhaerens, M. trossulus, I. scapularis, L. camtschaticum and H. sapiens MDM2, respectively) in black, non‐binding surface, flat bottom 96‐well plates (Corning Life Sciences). The polarization was measured at excitation/emission wavelengths of 485/535 nm on a SpectraMax iD5 plate reader. […] The resulting displacement curve was fit to a sigmoidal dose‐response (variable slope) equation to obtain an IC50 value, which was in turn used to calculate K D values for the competing peptides as described previously(Nikolovska‐Coleska et al., [2004]) (Excel File 2 in Data S1). Errors were calculated as standard error of mean (SEM) of calculated K D values for the displacer peptides resulting from independent fit of IC50 values for the replicate measurements.
Supplementary Excel File 1. Sequences of constructs used in the experiments. The sequence and name for each interaction motif in p53TAD and MDM2 SWIB domain used in binding experiments in the study.
Supplementary Excel File 2. Calculation of Ki from IC50 values. IC50 values were determined as described in the materials section. The theory behind the conversion of IC50 values to Ki values (=KD) is described in Nikolovska-Coleska, et al., Development and optimization of a binding assay for the XIAP BIR3 domain using fluorescence polarization. […]
p53TAD. The posterior probability is shown for each amino acid for each position for the […]
Supplementary Text File 1. Fasta file for p53TAD. […]
(In general: Polarisation of emitted light reports the rotation of a fluorescent probe.)

For experiment [4], the target named is T1, MDM2 D. rerio (SWIB domain). The experiment is described as above. The format is binding. The conditions noted are these: FP displacement; low constant FITC-labeled p53TADHuman and MDM2 D. rerio, displaced by excess peptide; room temperature, pH 7.4; KD calculated from IC50; mean ± SEM. The method, then:
FP can detect weak affinities (K D values in the high μM range), although the accuracy is lower than for the other methods. In FP experiments we observed direct binding using a FITC‐labeled p53TAD peptide and used unlabeled peptides containing the binding motif to displace the labeled one. FP experiments were performed at room temperature using the same buffer as kinetic experiments. […] The polarization was measured at excitation/emission wavelengths of 485/535 nm on a SpectraMax iD5 plate reader. […] Errors were calculated as standard error of mean (SEM) of calculated K D values for the displacer peptides resulting from independent fit of IC50 values for the replicate measurements. […]
Supplementary Excel File 2. […] IC50 values were determined as described in the materials section. The theory behind the conversion of IC50 values to Ki values (=KD) is described in Nikolovska-Coleska, et al., Development and optimization of a binding assay for the XIAP BIR3 domain using fluorescence polarization. […]

T1 sequence (O42354 19-102 limits assumed): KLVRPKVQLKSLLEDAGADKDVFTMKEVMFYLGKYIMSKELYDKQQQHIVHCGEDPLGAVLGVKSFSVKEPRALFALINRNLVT
T2 sequence (Q00987 17-125): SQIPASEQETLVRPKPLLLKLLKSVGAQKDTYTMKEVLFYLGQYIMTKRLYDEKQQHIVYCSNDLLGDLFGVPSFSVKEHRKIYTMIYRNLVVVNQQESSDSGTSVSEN

What is called Kd is the concentration at which binding is half-saturated. What is called kon is the rate constant with which the complex forms. Read a high kon as fast association. The koff is a measure of how fast the partners let go of each other. Low readings indicate slow dissociation, high ones fast dissociation. For Ac-EGPTFEHLWSTL [p73TAD D. rerio], the Kd in experiment [1] worked out at 120 ± 10 nM. For the same substance, the kon in experiment [1] (stopped-flow, 10°C) worked out at 3.2e+07 ± 1e+06 M⁻¹ s⁻¹. Besides, the koff in experiment [1] (MDM2 D. rerio, 10°C) turned out to be 3.7 ± 0.06 s⁻¹. Take Ac-SQDTFSDLWNQL [p53TAD1R ^AltAll]: the koff in experiment [2] (MDM2 H. sapiens) stood at 0.7 ± 0.04 s⁻¹. In addition, the on-rate (kon) in experiment [2] turned out to be 2.9e+07 ± 2e+06 M⁻¹ s⁻¹. Ac-SQETFNHLWNML [p53TAD1R ^ML] came in with a koff in experiment [2] (MDM2 H. sapiens) of 1.37 ± 0.06 s⁻¹. In experiment [2], this substance registered a kon of 1.67e+07 ± 900000 M⁻¹ s⁻¹.

The substance “Ac-SQETFSDLWNLL [p53TADReptiles/Mammals ^ML]” had a koff in experiment [2] (MDM2 H. sapiens) of 0.32 ± 0.04 s⁻¹. In addition, the association rate constant (kon) in experiment [2] was found to be 4.2e+07 ± 2e+06 M⁻¹ s⁻¹. For “Ac-SQETFDFLWKSL [p53TADBilateria ^AltAll]” the same measures were 2.6 ± 0.3 s⁻¹ and 1.5e+07 ± 1e+06 M⁻¹ s⁻¹. “GPMGMSDEPTLSQLSFSQELSSSWQLMIDEITQGKFNTNEDEGTAIYSYSEQNPDDRYLMRPNEPQYISAGYPDGQVGQLPREFAVNQIPSPRTFSDNVSSSADKAREAYYGQAVNGVSAETSPPLKRDP [full-length p53TAD, residues 1–126 of T. adhaerens p53]”: the “K D” value was “did not show binding” in experiment [3], “failed to displace” in experiment [3] (listed as full‐length p53TAD) and “no binding” in experiment [3] (listed as full‐length p53TAD from T. adhaerens). Regarding “Ac-SQESFSDLWNLL [p53TADFishes/Tetrapods ^AltAll]”, the koff in experiment [2] (MDM2 H. sapiens) came to 0.52 ± 0.04 s⁻¹. The same substance came in with a kon in experiment [2] of 2.73e+07 ± 700000 M⁻¹ s⁻¹. “Ac-SQETFSDLWNML [p53TADReptiles/Mammals ^AltAll]”: the koff in experiment [2] (MDM2 H. sapiens) was 0.36 ± 0.01 s⁻¹. Moreover, the kon in experiment [2] was determined as 3.8e+07 ± 2e+06 M⁻¹ s⁻¹. Turning to Ac-GQDVLNQLLEML [p63TAD D. rerio], the dissociation constant Kd in experiment [4] is 130 ± 2 µM. In experiment [2] (MDM2 H. sapiens), Ac-SQETFNHLWNTL [p53TADBilateria ^ML] had a koff of 11 ± 2 s⁻¹. Also, in experiment [2], the association rate constant (kon) worked out at 1.9e+07 ± 1e+06 M⁻¹ s⁻¹. Ac-SQETFEYLWNTL [p53TAD M. trossulus]: the “K D” value in experiment [2] (MDM2 H. sapiens, KD = koff/kon, Trp fluorescence ex 280 nm/em 330 ± 25 nm, 20 mM sodium phosphate pH 7.4, 150 mM NaCl, 1 mM TCEP, propagated error, 12-mers show non-native high affinity) was “high affinity”. On to “Ac-DSQEFAELWEKN (N-terminus assumed) [p53TAD D. rerio ^14–26]”, for which, in experiment [1] (MDM2 D. rerio, KD = koff/kon, stopped-flow, 10°C, 20 mM sodium phosphate pH 7.4, 150 mM NaCl, 1 mM TCEP, propagated error), the “K D” value is given as “absence of interaction; also recorded: non‐measurable affinity”.

In experiment [1] (stopped-flow, 10°C), “Ac-SQETFSDLWNML [p53TADFishes/Tetrapods ^ML]” came in with a kon of 2.46e+07 ± 800000 M⁻¹ s⁻¹. Further, in experiment [1] (MDM2 D. rerio, 10°C), the koff stood at 2.3 ± 0.2 s⁻¹.
